These results are taken from PMC4441592 (Neuron, 2015).

Peptide text beside a SMILES is read from it.

In test [1] the target is KORD (D138N hKOR) (Homo sapiens, UniProt P41145, D138N). Put plainly: cell-based. The following applies: EC50(nM).
Test [2] has as its target T1, KOR (Homo sapiens, UniProt P41145). Nature of the test: cell-based.
Test [3] concerns VGAT-ires-Cre mice, VTA/SN^VGAT neurons. Nature of the test: Locomotor activity. In kind it is in vivo.
Test [4] has as its system AGRP-ires-cre mice, ARC^AgRP neurons with hM3Dq and KORD. Nature of the test: Feeding study with multiplexed KOR and hM3Dq DREADD. It is filed as in vivo. The following applies: hM3Dq and KORD in ARC^AgRP neurons; CNO 1mg/kg i.p.
Test [5] concerns the target T1, KOR. Nature of the test: [3H]-diprenorphine radioligand competition binding, WT KOR.
The target in test [6] is KORD (Homo sapiens, UniProt P41145, D138N). Nature of the test: Radioligand competition binding, KORD.

As usually defined, the EC50 is the concentration giving half of the maximal effect. As a reminder, the Emax is the maximal effect, on the per cent scale that the assay sets. Take `CSCC[C@H](NC(=O)[C@H](Cc1ccccc1)NC(=O)CNC(=O)CNC(=O)[C@@H](N)Cc1ccc(O)cc1)C(=O)N[C@@H](CCCNC(=N)N)C(=O)N[C@@H](CCCNC(=N)N)C(=O)N[C@H](C(=O)NCC(=O)N[C@@H](CCCNC(=N)N)C(=O)N1CCC[C@H]1C(=O)N[C@@H](CCC(=O)O)C(=O)O)C(C)C` [BAM 12] (H-YGGFMRRVGRPE-OH): the EC50 in test [1] was over 10000 nM; in test [2] (EC50(nM)), 101 nM; in test [2] (pEC50 ± SEM), 102 nM. This molecule also came in with a maximum response (Emax) in test [2] of 99%.
Take `CSCC[C@H](NC(=O)[C@H](Cc1ccccc1)NC(=O)CNC(=O)CNC(=O)[C@@H](N)Cc1ccc(O)cc1)C(=O)N[C@@H](CCCNC(=N)N)C(=O)N[C@@H](CCCNC(=N)N)C(=O)N[C@H](C(=O)NCC(=O)N[C@@H](CCCNC(=N)N)C(=O)N1CCC[C@H]1C(=O)N[C@@H](CCC(=O)O)C(=O)N[C@@H](Cc1c[nH]c2ccccc12)C(=O)N[C@@H](Cc1c[nH]c2ccccc12)C(=O)N[C@@H](CCSC)C(=O)N[C@@H](CC(=O)O)C(=O)N[C@@H](Cc1ccc(O)cc1)C(=O)N[C@@H](CCC(N)=O)C(=O)O)C(C)C` [BAM 18] (H-YGGFMRRVGRPEWWMDYQ-OH): the EC50 is over 10000 nM in test [1], 85 nM in test [2] (EC50(nM)) and 85.1 nM in test [2] (pEC50 ± SEM). Besides, the Emax in test [2] is 97%.
In the same order, the values of `CSCC[C@H](NC(=O)[C@H](Cc1ccccc1)NC(=O)CNC(=O)CNC(=O)[C@@H](N)Cc1ccc(O)cc1)C(=O)N[C@@H](CCCNC(=N)N)C(=O)N[C@@H](CCCNC(=N)N)C(=O)N[C@H](C(=O)NCC(=O)N[C@@H](CCCNC(=N)N)C(=O)N1CCC[C@H]1C(=O)N[C@@H](CCC(=O)O)C(=O)N[C@@H](Cc1c[nH]c2ccccc12)C(=O)N[C@@H](Cc1c[nH]c2ccccc12)C(=O)N[C@@H](CCSC)C(=O)N[C@@H](CC(=O)O)C(=O)N[C@@H](Cc1ccc(O)cc1)C(=O)N[C@@H](CCC(N)=O)C(=O)N[C@@H](CCCNC(=N)N)C(=O)N[C@@H](Cc1ccc(O)cc1)C(=O)NCC(=O)O)C(C)C` [BAM 22] (H-YGGFMRRVGRPEWWMDYQRYG-OH) are over 10000 nM, 93 nM, 93.3 nM and 95%.
`C[N+]1([O-])CCN(C2=Nc3cc(Cl)ccc3Nc3ccccc32)CC1` [CNO, clozapine-N-oxide]: in test [3] (dual DREADD mice, 3.0 mg/kg CNO), the “locomotor activity, same session” value was “significant locomotor depression”. The “locomotor activity in control mice” value in test [3] (mCherry in VTA/SN^VGAT neurons, 3.0 mg/kg i.p.) is reported as “did not affect behavior”. Also, the “locomotor activity vs vehicle” value in test [3] (mice expressing both KORD and hM3Dq in VTA/SN^VGAT neurons, 3.0 mg/kg, different testing sessions) is on record as “decreased locomotor activity”. Further, the “light cycle food intake” value in test [4] is 0.75 ± 0.03 g.
Consider `CC(C)C[C@H](NC(=O)[C@H](Cc1ccccc1)NC(=O)CNC(=O)CNC(=O)[C@@H](N)Cc1ccc(O)cc1)C(=O)N[C@@H](CCCNC(=N)N)C(=O)O` [Dynorphin A(1-6)] (H-YGGFLR-OH), for which, in test [2], the Emax stood at 86%.
`CC(C)C[C@H](NC(=O)[C@H](Cc1ccccc1)NC(=O)CNC(=O)CNC(=O)[C@@H](N)Cc1ccc(O)cc1)C(=O)N[C@@H](CCCNC(=N)N)C(=O)N[C@@H](CCCNC(=N)N)C(=O)O` [Dynorphin A(1-7)] yielded an Emax in test [2] of 97%.
In test [2], `CC[C@H](C)[C@H](NC(=O)[C@H](CCCNC(=N)N)NC(=O)[C@H](CCCNC(=N)N)NC(=O)[C@H](CC(C)C)NC(=O)[C@H](Cc1ccccc1)NC(=O)CNC(=O)CNC(=O)[C@@H](N)Cc1ccc(O)cc1)C(=O)O` [Dynorphin A(1-8)] yielded an Emax of 94%.
With `CC[C@H](C)[C@H](NC(=O)[C@H](CCCN=C(N)N)NC(=O)[C@H](CCCN=C(N)N)NC(=O)[C@H](CC(C)C)NC(=O)[C@H](Cc1ccccc1)NC(=O)CNC(=O)CNC(=O)[C@@H](N)Cc1ccc(O)cc1)C(=O)N[C@@H](CCCN=C(N)N)C(=O)O` [Dynorphin A(1-9)] (H-YGGFLRRIR-OH), the EC50 is over 10000 nM in test [1], 127 nM in test [2] (EC50(nM)) and 129 nM in test [2] (pEC50 ± SEM).
Regarding `CC[C@H](C)[C@H](NC(=O)[C@H](CCCNC(=N)N)NC(=O)[C@H](CCCNC(=N)N)NC(=O)[C@H](CC(C)C)NC(=O)[C@H](Cc1ccccc1)NC(=O)CNC(=O)CNC(=O)[C@@H](N)Cc1ccc(O)cc1)C(=O)N[C@@H](CCCNC(=N)N)C(=O)O` [Dynorphin A(1-9)] (H-YGGFLRRIR-OH), in test [2], the Emax turned out to be 93%.
The term Ki denotes the dissociation constant of the complex between target and ligand, obtained from inhibition or displacement. Read a low Ki as tighter binding. `CC[C@H](C)[C@H](NC(=O)[C@H](CCCNC(=N)N)NC(=O)[C@H](CCCNC(=N)N)NC(=O)[C@H](CC(C)C)NC(=O)[C@H](Cc1ccccc1)NC(=O)CNC(=O)CNC(=O)[C@@H](N)Cc1ccc(O)cc1)C(=O)N[C@@H](CCCNC(=N)N)C(=O)N1CCC[C@H]1C(=O)N[C@@H](CCCCN)C(=O)N[C@@H](CC(C)C)C(=O)N[C@@H](CCCCN)C(=O)O` [Dynorphin A(1-13)]: the concentration for a half-maximal effect (EC50) in test [1] is over 10000 nM; in test [2] (EC50(nM)) it was 19 nM; in test [2] (pEC50 ± SEM), 19.5 nM. Also, the Ki is 3.16 nM in test [5] and 1620 nM in test [6].
`CC(C)C[C@H](NC(=O)[C@H](Cc1ccccc1)NC(=O)CNC(=O)CNC(=O)[C@@H](N)Cc1ccc(O)cc1)C(=O)N[C@@H](CCCNC(=N)N)C(=O)N[C@@H](CCCNC(=N)N)C(=O)N[C@@H](CCC(N)=O)C(=O)N[C@@H](Cc1ccccc1)C(=O)N[C@@H](CCCCN)C(=O)N[C@H](C(=O)N[C@H](C(=O)N[C@H](C(=O)O)[C@@H](C)O)C(C)C)C(C)C` [Dynorphin B(1-13)] displayed an Emax in test [2] of 100%.
`CSCC[C@H](NC(=O)[C@H](Cc1ccccc1)NC(=O)CNC(=O)CNC(=O)[C@@H](N)Cc1ccc(O)cc1)C(=O)N[C@@H](CCCNC(=N)N)C(=O)N[C@@H](Cc1ccccc1)C(=O)O` [Met-enkephalin-Arg-Phe] (H-YGGFMRF-OH) yielded an Emax in test [2] of 99%.
Regarding `CSCC[C@H](NC(=O)[C@H](Cc1ccccc1)NC(=O)CNC(=O)CNC(=O)[C@@H](N)Cc1ccc(O)cc1)C(=O)O` [Met-enkephalin], the Emax in test [2] worked out at 79%.
On to `CSCC[C@H](NC(=O)[C@H](Cc1ccccc1)NC(=O)CNC(=O)CNC(=O)[C@@H](N)Cc1ccc(O)cc1)C(=O)N[C@@H](CCCNC(=N)N)C(=O)N[C@@H](CCCNC(=N)N)C(=O)N[C@H](C(N)=O)C(C)C` [Metorphamide], for which the values for the half-maximal effective concentration (EC50) in test [1], in test [2] (EC50(nM)) and in test [2] (pEC50 ± SEM) were over 10000 nM, 108 nM and 102 nM, respectively. This molecule had an Emax in test [2] of 97%.
`CSCC[C@H](NC(=O)[C@H](Cc1ccccc1)NC(=O)CNC(=O)CNC(=O)[C@@H](N)Cc1ccc(O)cc1)C(=O)N[C@@H](CCCNC(=N)N)C(=O)N[C@@H](CCCNC(=N)N)C(=O)N[C@H](C(=O)NCC(=O)N[C@@H](CCCNC(=N)N)C(=O)N1CCC[C@H]1C(=O)N[C@@H](CCC(=O)O)C(=O)N[C@@H](Cc1c[nH]c2ccccc12)C(=O)N[C@@H](Cc1c[nH]c2ccccc12)C(=O)N[C@@H](CCSC)C(=O)N[C@@H](CC(=O)O)C(=O)N[C@@H](Cc1ccc(O)cc1)C(=O)N[C@@H](CCC(N)=O)C(=O)N[C@@H](CCCNC(=N)N)C(=O)N[C@@H](Cc1ccc(O)cc1)C(=O)NCC(=O)NCC(=O)N[C@@H](Cc1ccccc1)C(=O)N[C@@H](CC(C)C)C(=O)O)C(C)C` [Peptide E] (H-YGGFMRRVGRPEWWMDYQRYGGFL-OH): the EC50 in test [1] is over 10000 nM; in test [2] (EC50(nM)) it was 65 nM; in test [2] (pEC50 ± SEM), 66.1 nM. Also, in test [2], the Emax is 95%.
As for `CC(C)C[C@H](NC(=O)[C@H](Cc1ccccc1)NC(=O)CNC(=O)CNC(=O)[C@@H](N)Cc1ccc(O)cc1)C(=O)N[C@@H](CCCNC(=N)N)C(=O)N[C@@H](CCCCN)C(=O)N[C@@H](Cc1ccc(O)cc1)C(=O)N1CCC[C@H]1C(=O)N[C@@H](CCCCN)C(=O)O` [α-Neoendrophin] (H-YGGFLRKYPK-OH), the figures for the half-maximal effective concentration (EC50) in test [1], in test [2] (EC50(nM)) and in test [2] (pEC50 ± SEM) were over 10000 nM, 64 nM and 64.6 nM, respectively. In test [2], this molecule displayed a maximal response (Emax) of 95%.
For the molecule `CC[C@H](C)[C@H](NC(=O)[C@H](C)NC(=O)[C@H](CC(N)=O)NC(=O)[C@H](CCCCN)NC(=O)[C@H](Cc1ccccc1)NC(=O)[C@H](CC(C)C)NC(=O)[C@@H](NC(=O)[C@@H](NC(=O)[C@H](CC(C)C)NC(=O)[C@@H]1CCCN1C(=O)[C@@H](NC(=O)[C@H](CCC(N)=O)NC(=O)[C@H](CO)NC(=O)[C@H](CCCCN)NC(=O)[C@H](CCC(=O)O)NC(=O)[C@H](CO)NC(=O)[C@@H](NC(=O)[C@H](CCSC)NC(=O)[C@H](Cc1ccccc1)NC(=O)CNC(=O)CNC(=O)[C@@H](N)Cc1ccc(O)cc1)[C@@H](C)O)[C@@H](C)O)C(C)C)[C@@H](C)O)C(=O)N[C@H](C(=O)N[C@@H](CCCCN)C(=O)N[C@@H](CC(N)=O)C(=O)N[C@@H](C)C(=O)N[C@@H](Cc1ccc(O)cc1)C(=O)O)[C@@H](C)CC` [β-Endorphin (1-27)] (H-YGGFMTSEKSQTPLVTLFKNAIIKNAY-OH; N-terminus and C-terminus assumed), the figures for the EC50 in test [1], in test [2] (EC50(nM)) and in test [2] (pEC50 ± SEM) were over 10000 nM, 700 nM and 708 nM, respectively. For the same molecule, the Emax in test [2] was 100%.
The like results for `CC[C@H](C)[C@H](NC(=O)[C@H](C)NC(=O)[C@H](CC(N)=O)NC(=O)[C@H](CCCCN)NC(=O)[C@H](Cc1ccccc1)NC(=O)[C@H](CC(C)C)NC(=O)[C@@H](NC(=O)[C@@H](NC(=O)[C@H](CC(C)C)NC(=O)[C@@H]1CCCN1C(=O)[C@@H](NC(=O)[C@H](CCC(N)=O)NC(=O)[C@H](CO)NC(=O)[C@H](CCCCN)NC(=O)[C@H](CCC(=O)O)NC(=O)[C@H](CO)NC(=O)[C@@H](NC(=O)[C@H](CCSC)NC(=O)[C@H](Cc1ccccc1)NC(=O)CNC(=O)CNC(=O)[C@@H](N)Cc1ccc(O)cc1)[C@@H](C)O)[C@@H](C)O)C(C)C)[C@@H](C)O)C(=O)N[C@H](C(=O)N[C@@H](CCCCN)C(=O)N[C@@H](CC(N)=O)C(=O)N[C@@H](C)C(=O)N[C@@H](Cc1ccc(O)cc1)C(=O)N[C@@H](CCCCN)C(=O)N[C@@H](CCCCN)C(=O)NCC(=O)N[C@@H](CCC(=O)O)C(=O)O)[C@@H](C)CC` [β-Endorphin (1-31)] were, in that order, over 10000 nM, 706 nM, 708 nM and 100%.
